Assay in all cases: Enzyme inhibiting activity of MMPs, fluorogenic peptide substrate
Format in all cases: biochemical

The target of one assay is T1, MMP-2 (Homo sapiens, UniProt P08253).
T1 construct: purchased Calbiochem (EMD/MERCK Biosciences)
T1 sequence (P08253 110-660): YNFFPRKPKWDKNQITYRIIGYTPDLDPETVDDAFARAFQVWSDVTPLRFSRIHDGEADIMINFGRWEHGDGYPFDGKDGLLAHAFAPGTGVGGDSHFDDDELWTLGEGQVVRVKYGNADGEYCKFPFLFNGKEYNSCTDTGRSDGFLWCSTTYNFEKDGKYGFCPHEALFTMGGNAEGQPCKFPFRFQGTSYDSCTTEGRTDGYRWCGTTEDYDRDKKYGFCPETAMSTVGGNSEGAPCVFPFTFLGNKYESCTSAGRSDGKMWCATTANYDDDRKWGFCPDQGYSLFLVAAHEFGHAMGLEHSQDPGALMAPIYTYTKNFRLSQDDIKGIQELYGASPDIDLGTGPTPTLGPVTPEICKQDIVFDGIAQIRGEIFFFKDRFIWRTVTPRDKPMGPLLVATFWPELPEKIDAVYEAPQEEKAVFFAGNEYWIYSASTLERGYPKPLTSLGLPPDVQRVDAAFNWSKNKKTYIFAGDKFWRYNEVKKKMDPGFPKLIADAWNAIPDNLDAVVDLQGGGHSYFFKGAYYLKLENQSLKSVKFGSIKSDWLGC
Conditions: substrate MOCAc-Pro-Leu-Gly-Leu-A2Pr(DNP)-Ala-Arg-NH2, fluorescent intensity. In a few lines: (§1)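 Recombinant human enzymes with the fluorogenic substrate MOCAc-Pro-Leu-Gly-Leu-A2Pr(DNP)-Ala-Arg-NH2. Fluorescence was read for enzyme+substrate±inhibitor and substrate±inhibitor blanks.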

The next assay has as its target T2, MMP-9 (Homo sapiens, UniProt P14780).
T2 construct: purchased Calbiochem (EMD/MERCK Biosciences)
To be noted: substrate MOCAc-Pro-Leu-Gly-Leu-A2Pr(DNP)-Ala-Arg-NH2, fluorescent intensity. In a few lines:
as §1

The target of the next assay is T3, MMP-13 (Homo sapiens, UniProt P45452).
T3 construct: purchased Calbiochem (EMD/MERCK Biosciences)
To be noted: APMA-activated proenzyme; substrate MOCAc-Pro-Leu-Gly-Leu-A2Pr(DNP)-Ala-Arg-NH2, fluorescent intensity; read-out: IC50 MMP-13. In a few lines:
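Pro-MMP-13 was activated with 1 mM APMA at 37° C for 2 h in 50 mM Tris-HCl pH 7.6, 0.3 M NaCl, 10 mM CaCl2, 0.005% Brij35. Activity was read by fluorescence using MOCAc-Pro-Leu-Gly-Leu-A2Pr(DNP)-Ala-Arg-NH2 substrate, with enzyme and inhibitor blank corrections. IC50 is the concentration giving 50% inhibition.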

A value given as a limit tells only on which side of the number the result lay.

T2 sequence (P14780 94-707): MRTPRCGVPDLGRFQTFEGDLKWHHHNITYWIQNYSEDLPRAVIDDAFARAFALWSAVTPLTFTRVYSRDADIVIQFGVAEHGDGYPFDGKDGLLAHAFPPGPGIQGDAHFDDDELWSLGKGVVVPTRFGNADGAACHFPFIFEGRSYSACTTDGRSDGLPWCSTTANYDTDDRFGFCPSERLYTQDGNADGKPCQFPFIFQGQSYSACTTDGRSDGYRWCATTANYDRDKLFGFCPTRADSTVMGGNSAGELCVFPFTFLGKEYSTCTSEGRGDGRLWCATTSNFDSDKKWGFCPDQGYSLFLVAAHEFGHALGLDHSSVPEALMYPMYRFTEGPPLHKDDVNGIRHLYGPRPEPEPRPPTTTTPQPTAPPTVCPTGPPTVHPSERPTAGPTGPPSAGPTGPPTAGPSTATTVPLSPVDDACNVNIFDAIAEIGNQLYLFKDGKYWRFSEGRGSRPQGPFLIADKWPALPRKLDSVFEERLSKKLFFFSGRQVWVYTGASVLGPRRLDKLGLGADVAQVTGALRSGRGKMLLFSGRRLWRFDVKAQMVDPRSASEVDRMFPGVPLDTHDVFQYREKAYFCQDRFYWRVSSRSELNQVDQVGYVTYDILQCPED

As to `CC(C)[C@@H](NS(=O)(=O)N1CCN(c2ccc(C#Cc3ccnc(C(=O)NCc4ccc5oc(=O)n(C)c5c4)c3)cc2)CC1)C(=O)O` [Compound V-85, (R)-3-methyl-2-[4-(4-{2-[(3-methyl-2-oxo-2,3-dihydrobenzoxazol-5-ylmethyl)-carbamoyl]-pyridin-4-ylethynyl}-phenyl)-piperazine-1-sulfonylamino]-butanoic acid], the concentration for half-maximal inhibition (IC50) against MMP-2 is 1000 to 10000 nM; at MMP-9, > 10000 nM; on MMP-13 it was 2 nM.

`COc1ccc(Cn2c(=O)c3cc(C#Cc4ccc(N5CCN(S(=O)(=O)N[C@@H](C(=O)O)C(C)C)CC5)cc4)ccc3n(C)c2=O)cc1` [III-80, (R)-2-(4-{4-[3-(4-methoxybenzyl)-1-methyl-2,4-dioxo-1,2,3,4-tetrahydroquinazolin-6-ylethynyl]-phenyl}-piperazine-1-sulfonylamino)-3-methylbutanoic acid]: the 50% inhibitory concentration (IC50) against MMP-2 was > 10000 nM; against MMP-9, > 10000 nM; at MMP-13 it was 13 nM.

Take `CC(C)CCOc1ccc(C#Cc2ccc(N3CCN(S(=O)(=O)N[C@@H](C(=O)O)C(C)C)CC3)cc2)cc1C(=O)NCC#N` [III-99, (R)-2-(4-{4-[3-(cyanomethylcarbamoyl)-4-(3-methylbutoxy)phenylethynyl]-phenyl}-piperazine-1-sulfonylamino)-3-methylbutanoic acid]: the IC50 against MMP-2 is 1000 to 10000 nM; against MMP-9 it was > 10000 nM; at MMP-13, 25 nM.

Consider `CC(C)[C@@H](NS(=O)(=O)N1CCN(c2ccc(C#Cc3ccnc(C(=O)NCc4ccc(Cl)cc4)c3)cc2)CC1)C(=O)O` [III-144, (R)-2-(4-{4-[2-(4-chrolobenzylcarbamoyl)-pyridin-4-ylethynyl]-phenyl}-piperazine-1-sulfonylamino)-3-methylbutanoic acid], for which the figures for the IC50 on MMP-2, against MMP-9 and on MMP-13 were 1000 to 10000 nM, > 10000 nM and 10 nM, respectively.

Regarding `CC(C)CO/N=C/c1c[nH]c2ccc(C#Cc3ccc(N4CCN(S(=O)(=O)N[C@H](C)C(=O)O)CC4)cc3)cc12` [Compound V-43, (R)-2-(4-{4-[3-((E)-isobutoxyiminomethyl)-1H-indol-5-ylethynyl]-phenyl}-piperazine-1-sulfonylamino)-proponic acid], the IC50 against MMP-2 was > 10000 nM; at MMP-9 it was > 10000 nM; on MMP-13, 19 nM.

For `CCOCCOc1ccc(C#Cc2ccc(N3CCN(S(=O)(=O)N[C@@H](C(=O)O)C(C)C)CC3)cc2)cc1C(=O)NCC#N` [III-135, (R)-2-(4-{4-[3-(cyanomethylcarbamoyl)-4-(2-ethoxyethoxy)-phenylethynyl]-phenyl}-piperazine-1-sulfonylamino)-3-methylbutanoic acid], the IC50 on MMP-2 was 1000 to 10000 nM; on MMP-9 it was > 10000 nM; at MMP-13, 9 nM.

For “(S)-2-(4-{4-[(E)-2-(acetylnaphthalen-2-yl)-vinyl]-phenyl}-piperazine-1-sulfonylamino)-pentanoic acid [III-25]”, the figures for the IC50 on MMP-2, at MMP-9 and on MMP-13 were > 10000 nM, > 10000 nM and 18 nM, respectively.

Take `CC(C)[C@@H](NS(=O)(=O)N1CCN(c2ccc(C#Cc3ccc4ccn(Cc5ccc(S(C)(=O)=O)cc5)c(=O)c4c3)cc2)CC1)C(=O)O` [III-170, (R)-2-(4-{4-[2-(4-methanesulfonylbenzyl)-1-oxo-1,2-dihydroisoquinolin-7-ylethynyl)-phenyl]-piperazine-1-sulfonylamino}-3-methylbutanoic acid]: the results for the IC50 against MMP-2, at MMP-9 and at MMP-13 were 1000 to 10000 nM, > 10000 nM and 4 nM, respectively.

As for `C[C@@H](NS(=O)(=O)N1CCN(c2ccc(C#Cc3ccc4cccc(C(=O)N5CCOCC5)c4c3)cc2)CC1)C(=O)O` [Compound I-33, (R)-2-(4-{4-[8-(morpholine-4-carbonyl)-naphthalen-2-ylethynyl]-phenyl}-piperazine-1-sulfonylamino)-proponic acid], the IC50 at MMP-2 was 1000 to 10000 nM; against MMP-9, > 10000 nM; at MMP-13, 11 nM.

For the compound `COc1ccc(CNC(=O)c2cc(C#Cc3ccc(N4CCN(S(=O)(=O)NC(C)(C)C(=O)O)CC4)cc3)ccn2)cc1` [Compound V-7, 2-(4-{4-[2-(4-methoxybenzylcarbamoyl)-pyridin-4-ylethynyl]-phenyl}-piperazine-1-sulfonylamino)-2-methylproponic acid], the half-maximal inhibitory concentration (IC50) on MMP-2 was 1000 to 10000 nM; against MMP-9, > 10000 nM; at MMP-13, 12 nM.

`CC(C)[C@@H](NS(=O)(=O)N1CCN(c2ccc(C#Cc3ccc(OCCOC(C)(C)C)c(C(=O)NCC#N)c3)cc2)CC1)C(=O)O` [III-138, (R)-2-(4-{4-[4-(2-tert-butoxyethoxy)-3-(cyanomethylcarbamoyl)-phenylethynyl]-phenyl}-piperazine-1-sulfonylamino)-3-methylbutanoic acid]: the IC50 at MMP-2 was 1000 to 10000 nM; at MMP-9, > 10000 nM; on MMP-13, 18 nM.

As to `CNC(=O)Cc1cnc(-c2cc(C#Cc3ccc(N4CCN(S(=O)(=O)N[C@@H](C(=O)O)C(C)C)CC4)cc3)ccc2OCCOC)o1` [Compound V-28, (R)-2-(4-{4-[4-(2-methoxyethoxy)-3-(5-methylcarbamoylmethyloxazol-2-yl)-phenylethynyl]-phenyl}-piperazine-1-sulfonylamino)-3-methylbutanoic acid], the IC50 was 1000 to 10000 nM at MMP-2, > 10000 nM on MMP-9 and 16 nM on MMP-13.

`CC(C)[C@@H](NS(=O)(=O)N1CCN(c2ccc(C#Cc3ccnc(C(=O)NCc4ccc(Br)cc4)c3)cc2)CC1)C(=O)O` [III-216, (R)-2-(4-{4-[2-(4-bromobenzylcarbamoyl)-pyridin-4-ylethynyl]-phenyl}-piperazine-1-sulfonylamino)-3-methylbutanoic acid]: the values for the half-maximal inhibitory concentration (IC50) on MMP-2, on MMP-9 and on MMP-13 were > 10000 nM, > 10000 nM and 17 nM, respectively.

On to `CC(C)[C@@H](NS(=O)(=O)N1CCN(c2ccc(C#Cc3ccc4[nH]c(=O)n(CC#N)c(=O)c4c3)cc2)CC1)C(=O)O` [Compound V-63, (R)-2-{4-[4-(3-cyanomethyl-2,4-dioxo-1,2,3,4-tetrahydroquinazolin-6-ylethynyl)-phenyl]-piperazine-1-sulfonylamino}-3-methylbutanoic acid], for which the results for the IC50 at MMP-2, on MMP-9 and at MMP-13 were 1000 to 10000 nM, > 10000 nM and 8 nM, respectively.

In the case of `COC(=O)c1ccc(COc2cccc(-c3csc(C#Cc4ccc(N5CCN(S(=O)(=O)N[C@H](C)C(=O)O)CC5)cc4)n3)c2)cc1` [Compound V-22, 4-[3-(2-{4-[4-((R)-1-carboxyethylsulfamoyl)-piperazin-1-yl]-phenylethynyl}-thiazol-4-yl)-phenoxymethyl]-benzoic acid methyl ester], the results for the IC50 on MMP-2, on MMP-9 and at MMP-13 were > 10000 nM, > 10000 nM and 8 nM, respectively.

Regarding `CC[C@H](NS(=O)(=O)N1CCN(c2ccc(C#Cc3ccnc(C(=O)NCc4ccc(Cl)cc4)c3)cc2)CC1)C(=O)O` [III-68, (S)-2-(4-{4-[2-(4-chrolobenzylcarbamoyl)-pyridin-4-ylethynyl]-phenyl}-piperazine-1-sulfonylamino)-butanoic acid], the figures for the 50% inhibitory concentration (IC50) at MMP-2, against MMP-9 and at MMP-13 were > 10000 nM, > 10000 nM and 5 nM, respectively.

Consider `CC(C)[C@@H](NS(=O)(=O)N1CCN(c2ccc(C#Cc3ccnc(C(=O)NCc4ccc5c(c4)CCO5)c3)cc2)CC1)C(=O)O` [III-200, (R)-2-[4-(4-{2-[(2,3-dihydrobenzofuran-5-ylmethyl)-carbamoyl]-pyridin-4-ylethynyl}-phenyl)-piperazine-1-sulfonylamino]-3-methylbutanoic acid], for which the IC50 at MMP-2 was 1000 to 10000 nM; on MMP-9, > 10000 nM; on MMP-13 it was 5 nM.

Regarding `CC(C)[C@@H](NS(=O)(=O)N1CCN(c2ccc(C#Cc3ccc4c(c3)c(=O)n(Cc3ccc(F)c(F)c3)c(=O)n4C)cc2)CC1)C(=O)O` [Compound V-76, (R)-2-(4-{4-[3-(3,4-difluorobenzyl)-1-methyl-2,4-dioxo-1,2,3,4-tetrahydroquinazolin-6-ylethynyl]-phenyl}-piperazine-1-sulfonylamino)-3-methylbutanoic acid], the results for the half-maximal inhibitory concentration (IC50) against MMP-2, on MMP-9 and at MMP-13 were > 10000 nM, > 10000 nM and 18 nM, respectively.

As to `CC(C)[C@@H](NS(=O)(=O)N1CCN(c2ccc(C#Cc3ccnc(C(=O)NCc4ccc(OC(F)(F)F)cc4)c3)cc2)CC1)C(=O)O` [III-196, (R)-3-methyl-2-(4-{4-[2-(4-trifluoromethoxybenzylcarbamoyl)-pyridin-4-ylethynyl]-phenyl}-piperazine-1-sulfonylamino)-butanoic acid], the figures for the IC50 at MMP-2, on MMP-9 and on MMP-13 were > 10000 nM, > 10000 nM and 20 nM, respectively.
